Data taken from patent publication EP1420790B1, “USE OF BIBN4096 IN COMBINATION WITH OTHER ANTIMIGRAINE DRUGS FOR THE TREATMENT OF MIGRAINE” (Boehringer Ingelheim Pharma GmbH & Co.KG, priority 2001, dated 2003).

System: facial skin vasodilation induced by electrical trigeminal ganglion stimulation
Assay: Measurement of facial skin blood flow (vasodilation induced by electrical trigeminal ganglion stimulation, laser Doppler flowmetry)
Assay type: in vivo, rat
Settings: for % of trigeminus stimulation: anaesthetized male wistar rats
Description: Facial skin blood flow was measured by a modified method described by Escott et al. ([…]., Connor, H. E., Brain, S. D. (1995), Trigeminal ganglion stimulation increases facial skin blood flow in the rat a major role for calcitonin gene-related peptide, Brain Research, 669(1), 93-99). Fasted male wistar rats (strain CHbb:THOM, 280-320g) were anaesthetized with sodium pentobarbitone (initially with 60 mg/kg i.p. and maintained throughout the experiment with an intraperitoneal infusion of 30 mg/kg/h through a 23 G needle using a solution of 10 mg/ml). Both sides of the buccal area of the facial skin were shaved and depilated with a commercial depilatory […], Germany). The trachea was cannulated and the animals were artificially respired (80 strokes/min) with room air supplemented with oxygen. The body temperature was maintained at 37°C by an automated heating pad. The left femoral artery and the left femoral vein were cannulated for the continuous measurement of arterial blood pressure and intravenous administration of test compounds, respectively. […] Heart rate was derived from the blood pressure signal. Blood pressure and heart rate were continuously monitored throughout the course of the experiment to assess the level of anaesthesia and to monitor the cardiovascular effects of the drugs used in this study. The animals were placed in a stereotaxic frame and a longitudinal incision was made in the scalp. […] The position of the electrodes in the trigeminal ganglia were checked visually at the end of each experiment following removal of the brain. The trigeminal ganglion was stimulated at 10 Hz, 1 mA, 1 msec for 30 seconds using a stimulator supplied by Hugo Sachs Elektronik (79232 March-Hugstetten, Germany). Microvascular blood flow changes in the facial skin were measured by Laser Doppler flowmetry with a Periflux laser doppler system (PeriFLUX 4001, wave length […]; time constant 3 s, Perimed AB, Järfälla, S-17526, Sweden). Standard laser doppler probes (PROBE 408) were positioned on either side of the face approximately 0.5 cm below the centre of the eye, an area innervated by the maxillary branch (V2) of the trigeminal nerve. Blood flow changes were measured as flux in arbitrary units and expressed as area under the flux curve (mm^2) according to Escott et al. (1995). […] The first stimulation was used as a control for the subsequent stimulations.

NCCCC[C@H](NC(=O)[C@@H](Cc1cc(Br)c(O)c(Br)c1)NC(=O)N1CCC(N2Cc3ccccc3NC2=O)CC1)C(=O)N1CCN(c2ccncc2)CC1 [BIBN 4096 BS, 1-[N^2-[3,5-Dibromo-N-[[4-(3,4-dihydro-2(1H)-oxochinazolin-3-yl)-1-piperidinyl]-carbonyl]-D-tyrosyl]-L-lysyl]-4-(4-pyridinyl)-piperazine]
% of trigeminus stimulation (BIBN 4096 BS 0.03 mg/kg intravenously 5 min prior to second stimulation, mean ± spread): 60.3 ± 5.1% | % inhibition compared to control value (BIBN 4096 BS 0.03 mg/kg intravenously 5 min prior to second stimulation, versus saline control): 27.1%

CN1C[C@H](C(=O)N[C@]2(C)O[C@@]3(O)[C@@H]4CCCN4C(=O)[C@H](Cc4ccccc4)N3C2=O)C[C@@H]2c3cccc4[nH]cc(c34)C[C@H]21 [DHE, Dihydroergotamin]
% inhibition compared to control value (rat, in vivo): 27.0%

CN(C)CCc1c[nH]c2ccc(C[C@H]3COC(=O)N3)cc12 [Zolmitriptan, zolmitriptan]
% of trigeminus stimulation (Zolmitriptan 0.1 mg/kg intravenously 5 min prior to second stimulation): 55.6 ± 4.8% | % inhibition compared to control value (Zolmitriptan 0.1 mg/kg intravenously 5 min prior to second stimulation, versus saline control): 32.8%

CNS(=O)(=O)Cc1ccc2[nH]cc(CCN(C)C)c2c1 [Sumatriptan, sumatriptan]
% of trigeminus stimulation (Sumatriptan 1.0 mg/kg intravenously 5 min prior to second stimulation): 68.8 ± 6.8% | % inhibition compared to control value (Sumatriptan 1.0 mg/kg intravenously 5 min prior to second stimulation, versus saline control): 16.8%
